Data from ChEMBL document CHEMBL1201862, “PubChem BioAssay data set” (2004).
The source made the active and inactive calls.

Experiments:
[1] = biological target: T1, Tyrosine-protein phosphatase non-receptor type 7 (Homo sapiens, UniProt P35236); assay: inhibitors of human HePTP phosphatase, […], biochemical, absorbance, leukemia target (AID 521); assay type: functional
T1 sequence (P35236 whole entry): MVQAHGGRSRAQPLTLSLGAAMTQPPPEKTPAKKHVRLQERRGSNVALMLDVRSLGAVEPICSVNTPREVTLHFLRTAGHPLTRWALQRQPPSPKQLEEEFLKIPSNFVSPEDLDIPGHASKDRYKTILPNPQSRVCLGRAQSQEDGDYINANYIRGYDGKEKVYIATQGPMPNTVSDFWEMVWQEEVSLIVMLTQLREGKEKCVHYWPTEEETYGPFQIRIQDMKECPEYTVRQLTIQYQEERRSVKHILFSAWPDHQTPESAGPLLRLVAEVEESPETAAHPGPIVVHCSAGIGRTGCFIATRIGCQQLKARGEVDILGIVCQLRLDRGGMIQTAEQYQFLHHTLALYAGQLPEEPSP

Aminopeptidase N = biological target: T2, Aminopeptidase N (Plasmodium falciparum FcB1/Columbia, UniProt O96935); assay: P. falciparum M1AAP inhibitors, biochemical, fluorogenic H-Leu-NHMec substrate, 1536-well (AID 1445); parameters: species or system Plasmodium falciparum 3D7, 3D7
T2 sequence (O96935 whole entry): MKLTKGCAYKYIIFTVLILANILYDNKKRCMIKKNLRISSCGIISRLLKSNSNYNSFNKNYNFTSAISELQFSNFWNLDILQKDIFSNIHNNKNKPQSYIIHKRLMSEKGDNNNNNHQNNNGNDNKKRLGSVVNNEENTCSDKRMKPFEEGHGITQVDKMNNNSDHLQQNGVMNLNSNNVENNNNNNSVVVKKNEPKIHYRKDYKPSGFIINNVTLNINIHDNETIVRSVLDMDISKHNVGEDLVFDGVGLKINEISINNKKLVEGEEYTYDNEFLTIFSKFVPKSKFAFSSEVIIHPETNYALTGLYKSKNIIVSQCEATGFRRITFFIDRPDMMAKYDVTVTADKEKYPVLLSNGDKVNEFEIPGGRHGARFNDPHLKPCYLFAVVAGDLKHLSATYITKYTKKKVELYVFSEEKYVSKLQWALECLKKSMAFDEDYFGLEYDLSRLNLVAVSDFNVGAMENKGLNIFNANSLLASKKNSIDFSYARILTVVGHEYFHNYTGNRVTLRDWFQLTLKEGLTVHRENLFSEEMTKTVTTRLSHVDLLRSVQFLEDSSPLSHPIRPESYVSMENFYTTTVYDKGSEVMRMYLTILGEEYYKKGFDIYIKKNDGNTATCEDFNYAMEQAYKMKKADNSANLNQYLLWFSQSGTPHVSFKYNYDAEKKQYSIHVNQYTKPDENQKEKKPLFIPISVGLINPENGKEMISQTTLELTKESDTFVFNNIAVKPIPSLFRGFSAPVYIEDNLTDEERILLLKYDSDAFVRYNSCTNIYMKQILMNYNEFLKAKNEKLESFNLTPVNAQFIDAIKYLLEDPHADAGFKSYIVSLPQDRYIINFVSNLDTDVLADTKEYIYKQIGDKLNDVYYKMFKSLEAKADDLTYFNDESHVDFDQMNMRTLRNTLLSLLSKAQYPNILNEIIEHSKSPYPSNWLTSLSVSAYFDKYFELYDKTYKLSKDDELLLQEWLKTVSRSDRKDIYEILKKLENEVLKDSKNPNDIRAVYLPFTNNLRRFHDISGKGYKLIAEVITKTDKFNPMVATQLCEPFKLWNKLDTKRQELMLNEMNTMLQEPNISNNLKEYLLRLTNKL

Cytochrome P450 2C9 [2] = biological target: T3, Cytochrome P450 2C9 (Homo sapiens, UniProt P11712); settings: Potency
Cytochrome P450 2D6 = Cytochrome P450 2D6 (Homo sapiens, UniProt P10635); assay: qHTS Assay for Inhibitors and Substrates of Cytochrome P450 2D6. [Related pubchem assays: 410 ]; assay type: ADME; settings: read-out: Potency
[3] = cytotoxicity in KRAS-transformed pancreatic duct cells, primary screen, cell-based, fluorescence, HTS (AID 431); assay type: functional; settings: Homo sapiens;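 also: cell line used: HPDE-C7K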
[4] = cytotoxicity in HPDE-C7 cells, cell-based, fluorescence, HTS (AID 430); assay type: functional; settings: Homo sapiens
[5] = HepG2 cell cytotoxicity, dose response, cytotoxicity control, cherry-picked samples (AID 1159577); assay type: functional, cell-based
Paired box protein Pax-8 = Paired box protein Pax-8 (Homo sapiens, UniProt Q06710); assay: inhibitors of PAX8-driven TPO luciferase reporter, dose response, RMG-I cells, cherry-pick (AID 687027); assay type: functional, cell-based;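 also: luciferase reporter driven by Pax8 target thyroperoxidase promoter measured by SteadyGlo luminescence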
[6] = P. falciparum Dd2 growth inhibitors, dose response, SYBR Green, cherry-picked samples (AID 1159567); assay type: functional, cell-based
[7] = NIH:OVCAR-3 ovarian cancer cell cytotoxicity, dose response, PAX8 inhibitor project, plate reader, dry powder samples (AID 743044); assay type: functional, cell-based
[8] = M. tuberculosis H37Rv growth inhibitors, H37Rv strain (AID 1626); assay type: functional
[9] = enhancers of respiration in Yfh1-depleted yeast, dose response, Friedreich's ataxia, plus single-dose screen (AID 1465); assay type: functional;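 also: yeast depleted of Yfh1p frataxin homolog grown on glycerol needing respiration; WST-1 tetrazolium dye reduction as measure of cellular dehydrogenase metabolic activity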
[10] = HEp-2 cell cytotoxicity, dose response, cytotoxicity control for RSV inhibitor project, HTS (AID 2410); assay type: functional; settings: human respiratory syncytial virus
Cytochrome P450 2C9 [11] = biological target: T3, Cytochrome P450 2C9
Cytochrome P450 3A4 [12] = biological target: T4, Cytochrome P450 3A4 (Homo sapiens, UniProt P08684)
[13] = biological target: Peroxisome proliferator-activated receptor gamma/Nuclear receptor coactivator 3 (Homo sapiens, UniProt P37231); assay type: functional;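 also: agonist potency for raising coactivator recruitment to the receptor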
[14] = biological target: Peroxisome proliferator-activated receptor gamma/Nuclear receptor coactivator 1 (Homo sapiens, UniProt P37231); assay type: functional;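 also: agonist potency as compounds enhance coactivator SRC-1 recruitment to PPARgamma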
[15] = biological target: Peroxisome proliferator-activated receptor gamma/Nuclear receptor coactivator 2 (Homo sapiens, UniProt P37231); assay type: functional;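 also: agonist potency for raising coactivator recruitment to the receptor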
Cytochrome P450 2C19 = Cytochrome P450 2C19 (Homo sapiens, UniProt P33261); assay: Cytochrome panel assay with activity outcomes. Panel member name: p450-cyp2c19 Compounds with AC50 equal or less than 10 uM are considered active; assay type: functional; settings: read-out: AC50
Cytochrome P450 3A4 [16] = biological target: T4, Cytochrome P450 3A4; settings: Potency
[17] = NIH-3T3 fibroblast cytotoxicity, dose response, cytotoxicity control, cell-based, fluorescence, Alamar Blue, secondary assay (AID 2327); assay type: functional;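 also: NIH-3T3 mouse fibroblasts cultured with fluconazole at 8 µg/mL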
Streptococcus = assay: Group A Streptococcus viability loss, dose response, counter-screen for streptokinase expression inhibitor project, luminescence, BacTiterGlo (AID 1915); assay type: functional, organism-based;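 also: potency for reduction of bacterial viability or growth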
Streptokinase A = biological target: T5, Streptokinase A (Streptococcus pyogenes serotype M1, UniProt P10520); assay: S. pyogenes streptokinase expression inhibitors, potency, dose response, plasminogen activation absorbance, OD405 (AID 1914); assay type: functional, Streptococcus pyogenes M1 GAS;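 also: secreted streptokinase activity via plasminogen activation per viability signal from cell pellet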
T5 sequence (P10520 whole entry): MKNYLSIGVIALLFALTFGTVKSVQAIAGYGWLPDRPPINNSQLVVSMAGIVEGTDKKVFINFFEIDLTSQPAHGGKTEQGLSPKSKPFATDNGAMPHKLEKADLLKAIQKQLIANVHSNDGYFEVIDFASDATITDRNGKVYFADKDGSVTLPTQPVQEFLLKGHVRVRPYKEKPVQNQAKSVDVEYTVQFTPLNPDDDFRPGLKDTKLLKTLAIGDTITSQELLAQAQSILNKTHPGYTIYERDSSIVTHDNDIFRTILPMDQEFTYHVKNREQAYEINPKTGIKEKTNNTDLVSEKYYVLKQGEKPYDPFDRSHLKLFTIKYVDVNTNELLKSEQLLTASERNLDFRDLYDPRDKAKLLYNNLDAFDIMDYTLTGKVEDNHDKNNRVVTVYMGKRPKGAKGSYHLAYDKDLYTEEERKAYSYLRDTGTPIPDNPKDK

[18] = biological target: T6, Short transient receptor potential channel 4 (Mus musculus, UniProt Q9QUQ5); assay: mouse TRPC4 channel activators, dose response, cell-based, HEK293 TRPC4/mu-opioid, Fluo-4 calcium (AID 434937); assay type: functional
T6 sequence (Q9QUQ5 whole entry): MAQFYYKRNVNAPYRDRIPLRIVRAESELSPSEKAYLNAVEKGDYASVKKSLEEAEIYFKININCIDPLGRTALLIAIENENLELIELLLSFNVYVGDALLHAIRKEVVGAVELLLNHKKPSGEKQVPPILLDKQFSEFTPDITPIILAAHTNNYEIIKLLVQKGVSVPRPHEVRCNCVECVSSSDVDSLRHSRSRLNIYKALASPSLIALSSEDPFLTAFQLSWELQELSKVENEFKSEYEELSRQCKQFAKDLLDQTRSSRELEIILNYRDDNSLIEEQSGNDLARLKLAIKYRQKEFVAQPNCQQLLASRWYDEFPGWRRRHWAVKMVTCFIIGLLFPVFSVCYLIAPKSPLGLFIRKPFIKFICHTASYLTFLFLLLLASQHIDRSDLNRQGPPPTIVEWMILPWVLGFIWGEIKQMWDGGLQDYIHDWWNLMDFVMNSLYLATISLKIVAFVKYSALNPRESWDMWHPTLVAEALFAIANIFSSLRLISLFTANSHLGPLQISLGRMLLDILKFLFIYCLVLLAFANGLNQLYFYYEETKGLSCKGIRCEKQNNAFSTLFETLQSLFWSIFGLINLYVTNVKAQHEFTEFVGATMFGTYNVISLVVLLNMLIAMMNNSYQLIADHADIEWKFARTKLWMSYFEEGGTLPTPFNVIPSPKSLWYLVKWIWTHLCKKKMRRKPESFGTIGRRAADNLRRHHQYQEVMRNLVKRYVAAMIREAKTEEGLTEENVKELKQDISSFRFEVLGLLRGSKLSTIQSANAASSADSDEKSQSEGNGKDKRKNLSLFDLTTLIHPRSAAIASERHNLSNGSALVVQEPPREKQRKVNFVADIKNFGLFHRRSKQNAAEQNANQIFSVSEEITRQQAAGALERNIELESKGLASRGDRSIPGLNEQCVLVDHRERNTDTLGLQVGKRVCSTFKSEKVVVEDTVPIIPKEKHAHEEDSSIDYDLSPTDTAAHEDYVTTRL

[19] = system: Streptococcus sp. 'group A'; assay: growth inhibition of control SK(-) GAS strain, dose response, counter-screen for streptokinase expression inhibitor project, luminescence, kanamycin, BacTiterGlo, confirmation (AID 1900); assay type: functional, organism-based
[20] = C. albicans growth with fluconazole, confirmation, fluorescence, retest (AID 2467); assay type: functional, cell-based
[21] = cytotoxicity toward NIH3T3 fibroblasts, dose response, counter-screen, cell-based, ATP luminescence, mouse fibroblasts (AID 2010); assay type: functional;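 also: cells exposed to compound for about 90 hours before reading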
[22] = inhibitors of intracellular T. cruzi replication, confirmation, NIH3T3 host cells, beta-gal luminescence (AID 2044); assay type: functional, cell-based;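 also: intracellular parasites grown in NIH/3T3 mouse fibroblasts as host cells; luminescent beta-galactosidase reporter signal from transgenic T. cruzi replicating inside host cells; inhibitors lower the luminescence signal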

Cytochrome P450 2D6, sequence (P10635 whole entry): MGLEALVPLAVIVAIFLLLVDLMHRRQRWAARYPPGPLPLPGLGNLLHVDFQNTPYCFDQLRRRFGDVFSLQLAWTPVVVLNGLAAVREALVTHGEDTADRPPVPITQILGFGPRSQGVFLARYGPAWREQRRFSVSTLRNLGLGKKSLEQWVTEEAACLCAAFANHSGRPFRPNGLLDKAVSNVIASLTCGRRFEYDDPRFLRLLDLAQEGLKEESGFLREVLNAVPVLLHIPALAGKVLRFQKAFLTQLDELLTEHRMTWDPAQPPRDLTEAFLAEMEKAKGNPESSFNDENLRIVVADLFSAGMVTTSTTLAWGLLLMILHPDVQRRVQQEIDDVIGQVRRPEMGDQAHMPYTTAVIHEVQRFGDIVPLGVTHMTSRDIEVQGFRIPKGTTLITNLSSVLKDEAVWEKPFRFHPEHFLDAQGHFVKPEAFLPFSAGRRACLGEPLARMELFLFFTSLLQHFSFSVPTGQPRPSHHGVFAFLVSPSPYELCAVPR
T3 sequence (P11712 whole entry): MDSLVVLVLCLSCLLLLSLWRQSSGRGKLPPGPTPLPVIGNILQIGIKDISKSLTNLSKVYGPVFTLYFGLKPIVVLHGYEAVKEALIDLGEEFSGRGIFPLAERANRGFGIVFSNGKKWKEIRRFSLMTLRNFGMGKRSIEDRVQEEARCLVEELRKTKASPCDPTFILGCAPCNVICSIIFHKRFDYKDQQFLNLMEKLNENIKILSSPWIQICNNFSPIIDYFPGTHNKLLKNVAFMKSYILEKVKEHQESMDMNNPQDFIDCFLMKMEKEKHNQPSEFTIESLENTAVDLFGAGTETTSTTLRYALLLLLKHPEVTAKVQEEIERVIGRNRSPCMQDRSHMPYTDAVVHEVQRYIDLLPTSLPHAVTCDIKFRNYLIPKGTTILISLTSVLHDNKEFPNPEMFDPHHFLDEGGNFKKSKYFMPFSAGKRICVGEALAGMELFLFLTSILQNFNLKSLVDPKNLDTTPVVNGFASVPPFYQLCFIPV
Peroxisome proliferator-activated receptor gamma/Nuclear receptor coactivator 3, sequence (P37231 whole entry): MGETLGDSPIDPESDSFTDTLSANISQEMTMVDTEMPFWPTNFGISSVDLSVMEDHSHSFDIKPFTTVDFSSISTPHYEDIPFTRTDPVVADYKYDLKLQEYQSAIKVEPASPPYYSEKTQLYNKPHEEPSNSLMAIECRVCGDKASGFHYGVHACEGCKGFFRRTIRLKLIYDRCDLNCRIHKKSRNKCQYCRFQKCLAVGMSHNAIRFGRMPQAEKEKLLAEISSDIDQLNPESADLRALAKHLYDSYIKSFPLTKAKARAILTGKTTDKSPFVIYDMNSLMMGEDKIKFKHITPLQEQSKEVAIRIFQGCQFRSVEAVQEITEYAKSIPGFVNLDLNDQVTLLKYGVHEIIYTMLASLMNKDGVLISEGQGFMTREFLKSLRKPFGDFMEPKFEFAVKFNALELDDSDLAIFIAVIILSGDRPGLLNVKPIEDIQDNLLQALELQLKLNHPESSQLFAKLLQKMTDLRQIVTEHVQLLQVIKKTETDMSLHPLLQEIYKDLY
Peroxisome proliferator-activated receptor gamma/Nuclear receptor coactivator 3, sequence (Q9Y6Q9 whole entry, further chain): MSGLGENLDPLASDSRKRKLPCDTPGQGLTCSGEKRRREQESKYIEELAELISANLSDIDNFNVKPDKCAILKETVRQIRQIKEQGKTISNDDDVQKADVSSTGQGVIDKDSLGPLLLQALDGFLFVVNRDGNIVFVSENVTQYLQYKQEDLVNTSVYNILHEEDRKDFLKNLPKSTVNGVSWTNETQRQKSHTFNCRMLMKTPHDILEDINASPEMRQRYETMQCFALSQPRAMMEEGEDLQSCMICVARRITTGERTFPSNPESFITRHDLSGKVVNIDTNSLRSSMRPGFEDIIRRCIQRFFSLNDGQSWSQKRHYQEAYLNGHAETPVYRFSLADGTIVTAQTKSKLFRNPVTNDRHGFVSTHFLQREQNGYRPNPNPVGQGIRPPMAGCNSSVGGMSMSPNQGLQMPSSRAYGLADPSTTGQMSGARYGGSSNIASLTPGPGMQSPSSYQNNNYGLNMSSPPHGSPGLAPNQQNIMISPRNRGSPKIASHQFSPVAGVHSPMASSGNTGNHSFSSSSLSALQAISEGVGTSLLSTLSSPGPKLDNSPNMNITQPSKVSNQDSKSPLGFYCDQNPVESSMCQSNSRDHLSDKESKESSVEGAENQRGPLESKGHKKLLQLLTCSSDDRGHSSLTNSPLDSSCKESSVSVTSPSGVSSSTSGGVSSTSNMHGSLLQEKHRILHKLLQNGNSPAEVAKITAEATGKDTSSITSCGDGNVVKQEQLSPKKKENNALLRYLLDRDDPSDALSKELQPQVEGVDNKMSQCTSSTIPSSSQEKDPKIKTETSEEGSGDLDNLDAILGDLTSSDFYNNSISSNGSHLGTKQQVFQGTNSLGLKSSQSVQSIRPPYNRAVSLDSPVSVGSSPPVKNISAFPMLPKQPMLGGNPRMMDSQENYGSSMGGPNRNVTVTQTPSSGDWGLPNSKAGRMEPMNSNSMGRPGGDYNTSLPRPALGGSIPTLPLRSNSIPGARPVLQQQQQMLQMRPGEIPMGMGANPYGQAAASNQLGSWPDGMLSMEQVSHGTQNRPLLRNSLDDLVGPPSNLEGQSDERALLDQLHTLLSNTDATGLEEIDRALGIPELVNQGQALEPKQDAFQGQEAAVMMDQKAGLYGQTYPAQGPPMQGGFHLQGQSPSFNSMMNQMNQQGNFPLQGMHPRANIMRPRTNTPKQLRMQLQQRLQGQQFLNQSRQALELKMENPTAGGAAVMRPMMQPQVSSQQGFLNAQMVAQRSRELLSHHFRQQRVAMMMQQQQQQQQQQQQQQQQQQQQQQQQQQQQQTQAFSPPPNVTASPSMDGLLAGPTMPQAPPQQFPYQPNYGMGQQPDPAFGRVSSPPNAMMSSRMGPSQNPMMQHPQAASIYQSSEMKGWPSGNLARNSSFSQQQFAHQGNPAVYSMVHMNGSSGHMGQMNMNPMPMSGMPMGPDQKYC
Peroxisome proliferator-activated receptor gamma/Nuclear receptor coactivator 1, sequence (P37231 whole entry): as the sequence (P37231 whole entry) above
Peroxisome proliferator-activated receptor gamma/Nuclear receptor coactivator 1, sequence (Q15788 whole entry, further chain): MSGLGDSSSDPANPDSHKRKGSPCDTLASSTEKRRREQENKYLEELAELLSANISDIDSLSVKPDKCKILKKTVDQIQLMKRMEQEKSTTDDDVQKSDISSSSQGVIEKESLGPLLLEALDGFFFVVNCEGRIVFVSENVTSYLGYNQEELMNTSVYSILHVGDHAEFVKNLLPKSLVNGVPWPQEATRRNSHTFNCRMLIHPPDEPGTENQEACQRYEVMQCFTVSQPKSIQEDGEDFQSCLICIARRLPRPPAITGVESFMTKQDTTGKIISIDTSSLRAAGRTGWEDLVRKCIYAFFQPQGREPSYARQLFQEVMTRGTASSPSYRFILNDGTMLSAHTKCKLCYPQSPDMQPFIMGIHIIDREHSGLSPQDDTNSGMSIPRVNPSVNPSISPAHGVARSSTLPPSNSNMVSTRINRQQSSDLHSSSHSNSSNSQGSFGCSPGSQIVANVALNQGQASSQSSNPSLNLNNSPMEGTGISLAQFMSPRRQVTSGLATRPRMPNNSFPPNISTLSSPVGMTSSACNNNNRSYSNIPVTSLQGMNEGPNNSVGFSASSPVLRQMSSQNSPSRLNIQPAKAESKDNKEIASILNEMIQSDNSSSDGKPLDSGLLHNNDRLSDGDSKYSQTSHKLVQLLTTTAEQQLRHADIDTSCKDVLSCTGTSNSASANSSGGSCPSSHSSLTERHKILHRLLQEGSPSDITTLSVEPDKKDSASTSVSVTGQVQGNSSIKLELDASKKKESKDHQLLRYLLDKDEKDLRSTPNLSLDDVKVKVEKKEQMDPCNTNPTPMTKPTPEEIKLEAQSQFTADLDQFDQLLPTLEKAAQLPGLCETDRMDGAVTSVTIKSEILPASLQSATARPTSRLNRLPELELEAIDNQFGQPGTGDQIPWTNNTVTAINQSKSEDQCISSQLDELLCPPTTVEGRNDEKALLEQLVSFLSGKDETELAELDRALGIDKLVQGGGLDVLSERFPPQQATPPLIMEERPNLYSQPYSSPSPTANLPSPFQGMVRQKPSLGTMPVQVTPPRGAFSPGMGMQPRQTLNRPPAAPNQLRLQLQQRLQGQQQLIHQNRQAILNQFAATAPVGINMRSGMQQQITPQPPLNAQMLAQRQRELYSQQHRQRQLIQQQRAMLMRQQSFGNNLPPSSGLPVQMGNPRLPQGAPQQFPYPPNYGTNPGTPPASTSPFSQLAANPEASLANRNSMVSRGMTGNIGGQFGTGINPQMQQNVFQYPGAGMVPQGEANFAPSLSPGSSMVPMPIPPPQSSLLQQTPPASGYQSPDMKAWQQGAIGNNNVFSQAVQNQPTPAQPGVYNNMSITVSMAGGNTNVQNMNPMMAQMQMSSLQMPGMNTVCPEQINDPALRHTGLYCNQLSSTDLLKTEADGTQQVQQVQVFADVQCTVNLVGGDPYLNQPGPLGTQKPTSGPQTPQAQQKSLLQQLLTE

O=C(NC1=NCCS1)c1ccc2c(c1)C(=O)N(Cc1ccco1)C2=O
IC50 [1]: > 100 µM (not active)

C/C=C/c1ccc(OCCOc2cc(C=O)ccc2OC)c(OC)c1
IC50 (Aminopeptidase N): 88.9 µM (active)

COc1ccc(/C=C/N(CCc2ccc(OC)c(OC)c2)C(=O)C(F)(F)F)cc1
AC50 (Cytochrome P450 2C9 [2]): 3.16 µM (inconclusive) | AC50 (Cytochrome P450 2D6): 7.94 µM (inconclusive)

COc1cc(NC(=O)C2CCCCN2)ccc1OCC(C)C (stereo unspecified)
EC50 [3]: > 20 µM (not active) | EC50 [4]: > 20 µM (not active)

O=C(Nc1ccccc1)N1C[C@@H]2N[C@H](C1)[C@@H]2c1ccc(/C=C/c2ccccc2)cc1
AC50 [5]: 7.17 µM (active) | AC50 (Paired box protein Pax-8): 22.6 µM (active) | AC50 [6]: 1.85 µM (active) | AC50 [7]: 33.5 µM (active)

O=[N+]([O-])c1ccc(-c2ccc(/C=N/O)o2)cc1
IC50 [8]: > 100 µM (active)

CN(C)c1ccc(/C=C(/C(=O)c2ccc(Cl)cc2Cl)n2cncn2)cc1
EC50 [9]: > 100 µM (active)

Cc1ccc2c(C)c(C(=O)N3CCN(c4ccncc4)CC3)oc2c1C
CC50 [10]: 46.9 µM (active) | IC50 (cells): 23.9 µM (active)

Cn1c(SCc2cccc3ccccc23)nnc1-c1ccco1
CC50 [10]: > 50 µM (active) | IC50 (cells): 46.5 µM (active)

CC[C@H](C)N(C)C(=O)c1cc2ccccc2c(-c2ccccc2Cl)n1
AC50 (Cytochrome P450 2C9 [2]): 15.8 µM (inconclusive) | AC50 (Cytochrome P450 2C9 [11]): 31.6 µM (inconclusive) | AC50 (Cytochrome P450 3A4 [12]): 20 µM (inconclusive)

O=C(COC(=O)C1COc2ccccc2O1)NC(=O)Nc1ccc2c(c1)OCCO2 (stereo unspecified)
IC50 [8]: > 100 µM (active)

COc1ccc(C(CN=C(S)NCc2ccccc2)N2CCCC2)cc1 (stereo unspecified)
IC50 (cells): 24.2 µM (active)

C=CCC1C=CC(Oc2ccc(OC)cc2)C(COC(=O)c2ccc(Br)cc2)O1 (stereo unspecified)
AC50 (Cytochrome P450 2C9 [2]): 3.98 µM (inconclusive) | AC50 (Cytochrome P450 2D6): 6.31 µM (inconclusive)

c1ccc(-c2oc3ncnc(NCCCN4CCOCC4)c3c2-c2ccccc2)cc1
EC50 [13]: > 79.4 µM (not active) | EC50 [14]: > 79.4 µM (not active) | EC50 [15]: > 79.4 µM (not active)

CC(=O)NC1(c2cccc(F)c2)CCN(CC(=O)NC2CCCCC2)CC1
EC50 [3]: > 20 µM (not active) | AC50 (Cytochrome P450 2C19): 3.55 µM (inconclusive) | EC50 [4]: > 20 µM (not active)

O=C(NC1CCCCCC1)c1c(F)c(F)c(F)c(F)c1F
IC50 [1]: > 100 µM (not active)

CN(C)C(=O)c1ccc(-c2nc(N(C)C)c3ccccc3n2)cc1
AC50 (Cytochrome P450 3A4 [16]): 1.58 µM (inconclusive) | AC50 (Cytochrome P450 2D6): 12.6 µM (inconclusive)

O=C(OCN1C(=O)c2ccccc2C1=O)c1cccs1
IC50 [1]: > 100 µM (not active)

CCCCC(=O)NNC(=S)NC(=O)C(c1ccccc1)c1ccccc1
EC50 [17]: 19.6 µM (inconclusive) | EC50 (Streptococcus): 25.1 µM (active) | EC50 (Streptokinase A): > 150 µM (not active) | EC50 [9]: > 100 µM (active) | EC50 [18]: 2.66 µM (active) | EC50 [19]: 0.788 µM (active) | EC50 [20]: 2.15 µM (active)

COc1ccc(N2C(=O)/C(=C\NNS(=O)(=O)c3cccc([N+](=O)[O-])c3)c3ccccc3C2=O)cc1OC
EC50 [13]: > 79.4 µM (not active) | EC50 [21]: > 60 µM (not active) | EC50 [14]: > 79.4 µM (not active) | EC50 [15]: > 79.4 µM (not active) | EC50 [22]: 18.2 µM (active)

Cc1cc(NC(=O)CSc2nc3ccsc3c(=O)n2NC(=O)c2ccccc2)no1
IC50 (Aminopeptidase N): 23.7 µM (active)
